In ChEMBL document CHEMBL1156251, “Structure--activity relationships of polymyxin antibiotics” (J Med Chem, 2010) one finds MIC and Ka data, which are given here for 22 molecules.

In brackets after ≈: the same amount, converted by molar mass. Where a SMILES comes first, the peptide text is derived from it. Bridges are numbered along the chain shown (N, C = ends). [ ]: non-standard residue; d: D form. The star is where a group is joined. Octanoyl = CCCCCCCC(=O)*; Dab = NCC[C@H](N)C(=O)O A value given as a limit tells only on which side of the number the result lay.

For test [1], the system named is Escherichia coli. As to the kind of experiment: Antimicrobial activity against Escherichia coli. Type of test: functional.
Test [2] has as its system Salmonella enterica. In words: Antimicrobial activity against Salmonella enterica. Type of test: functional.
Test [3] relates to Pseudomonas aeruginosa. As to the kind of experiment: Antimicrobial activity against Pseudomonas aeruginosa. It is filed as functional, organism-based.
The test system of test [4] is Lipopolysaccharide (LPS). As to the kind of experiment: Displacement of dansyl-PMB from LPS by isothermal titration calorimetry.

Turning to `CC(=O)N[C@H](C(=O)N[C@@H](CCN)C(=O)N[C@H]1CCNC(=O)[C@H]([C@@H](C)O)NC(=O)[C@H](CCN)NC(=O)[C@H](CCN)NC(=O)[C@H](CC(C)C)NC(=O)[C@@H](CC(C)C)NC(=O)[C@H](CCN)NC1=O)[C@@H](C)O`, the MIC was 128 µM (≈ 124 µg/mL) in test [1], over 512 µM in test [2] and 2 µM (≈ 1.94 µg/mL) in test [3].
In the case of `CC(=O)N[C@H](C(=O)N[C@@H](CCN)C(=O)N[C@H]1CCNC(=O)[C@H]([C@@H](C)O)NC(=O)[C@H](CCN)NC(=O)[C@H](CCN)NC(=O)[C@H](CC(C)C)NC(=O)[C@@H](Cc2ccccc2)NC(=O)[C@H](CCN)NC1=O)[C@@H](C)O`, the MIC in test [1] is 32 µM (≈ 32.2 µg/mL); in test [2], 128 µM (≈ 129 µg/mL); in test [3], 2 µM (≈ 2.01 µg/mL).
Take `CCCCCCCCCCCCCC(=O)N[C@H](C(=O)N[C@@H](CCN)C(=O)N[C@H]1CCNC(=O)[C@H]([C@@H](C)O)NC(=O)[C@H](CCN)NC(=O)[C@H](CCN)NC(=O)[C@H](CC(C)C)NC(=O)[C@@H](Cc2ccccc2)NC(=O)[C@H](CCN)NC1=O)[C@@H](C)O`: the MIC in test [1], in test [2] and in test [3] was 4 µM (≈ 4.69 µg/mL) throughout.
Regarding `CC(C)C[C@@H]1NC(=O)[C@@H](CC(C)C)NC(=O)[C@H](CCN)NC(=O)[C@@H](NC(=O)[C@H](CCN)NC(=O)[C@@H](NC(=O)[C@H](CCN)NC(=O)CC23CC4CC(CC(C4)C2)C3)[C@@H](C)O)CCNC(=O)[C@H]([C@@H](C)O)NC(=O)[C@H](CCN)NC(=O)[C@H](CCN)NC1=O`, the values for the MIC in test [1], in test [2] and in test [3] were 2 µM (≈ 2.41 µg/mL), 1 µM (≈ 1.21 µg/mL) and 1 µM (≈ 1.21 µg/mL), respectively.
For `CC(C)C[C@@H]1NC(=O)[C@@H](CC(C)C)NC(=O)[C@H](CCN)NC(=O)[C@@H](NC(=O)[C@H](CCN)NC(=O)[C@@H](NC(=O)[C@H](CCN)NC(=O)Cc2ccc(-c3ccccc3)cc2)[C@@H](C)O)CCNC(=O)[C@H]([C@@H](C)O)NC(=O)[C@H](CCN)NC(=O)[C@H](CCN)NC1=O`, the MIC in test [1] stood at 1 µM (≈ 1.22 µg/mL); in test [2], 2 µM (≈ 2.45 µg/mL); in test [3] it was 1 µM (≈ 1.22 µg/mL).
Consider `CC(C)C[C@@H]1NC(=O)[C@@H](Cc2ccccc2)NC(=O)[C@H](CCN)NC(=O)[C@@H](NC(=O)[C@H](CCN)NC(=O)[C@@H](NC(=O)[C@H](CCN)NC(=O)CCCC2CCCCC2)[C@@H](C)O)CCNC(=O)[C@H]([C@@H](C)O)NC(=O)[C@H](CCN)NC(=O)[C@H](CCN)NC1=O`, for which the MIC was 0.5 µM (≈ 0.608 µg/mL) in test [1], 0.5 µM (≈ 0.608 µg/mL) in test [2] and 1 µM (≈ 1.22 µg/mL) in test [3].
For `CC(C)C[C@@H]1NC(=O)[C@@H](CC(C)C)NC(=O)[C@H](CCN)NC(=O)[C@@H](NC(=O)[C@H](CCN)NC(=O)[C@@H](NC(=O)[C@H](CCN)NC(=O)c2ccc3cc4ccccc4cc3c2)[C@@H](C)O)CCNC(=O)[C@H]([C@@H](C)O)NC(=O)[C@H](CCN)NC(=O)[C@H](CCN)NC1=O`, the MIC worked out at 4 µM (≈ 4.93 µg/mL) in test [1], 2 µM (≈ 2.47 µg/mL) in test [2] and 2 µM (≈ 2.47 µg/mL) in test [3].
Consider `CC(C)C[C@@H]1NC(=O)[C@@H](CC(C)C)NC(=O)[C@H](CCN)NC(=O)[C@@H](NC(=O)[C@H](CCN)NC(=O)[C@@H](NC(=O)[C@H](CCN)NC(=O)CCCC2CCCCC2)[C@@H](C)O)CCNC(=O)[C@H]([C@@H](C)O)NC(=O)[C@H](CCN)NC(=O)[C@H](CCN)NC1=O`, for which the MIC in test [1] was found to be 2 µM (≈ 2.36 µg/mL); in test [2], 1 µM (≈ 1.18 µg/mL); in test [3], 1 µM (≈ 1.18 µg/mL).
Take `CC(C)C[C@@H]1NC(=O)[C@@H](Cc2ccccc2)NC(=O)[C@H](CCN)NC(=O)[C@@H](NC(=O)[C@H](CCN)NC(=O)[C@@H](NC(=O)[C@H](CCN)NC(=O)CCCc2cc3ccc4cccc5ccc(c2)c3c45)[C@@H](C)O)CCNC(=O)[C@H]([C@@H](C)O)NC(=O)[C@H](CCN)NC(=O)[C@H](CCN)NC1=O`: the MIC in test [1], in test [2] and in test [3] was 2 µM (≈ 2.67 µg/mL) throughout.
On to `CCCCCCCC(=O)N[C@@H](CCNS(=O)(=O)c1cccc2c(N(C)C)cccc12)C(=O)N[C@H](C(=O)N[C@@H](CCN)C(=O)N[C@H]1CCNC(=O)[C@H]([C@@H](C)O)NC(=O)[C@H](CCN)NC(=O)[C@H](CCN)NC(=O)[C@H](CC(C)C)NC(=O)[C@@H](Cc2ccccc2)NC(=O)[C@H](CCN)NC1=O)[C@@H](C)O`, for which the MIC in test [1], in test [2] and in test [3] was 1 µM (≈ 1.42 µg/mL) throughout.
Regarding `CC[C@H](C)[C@H](N)C(=O)N[C@@H](CCCCN)C(=O)N[C@H](C(=O)N[C@@H](CCCCN)C(=O)N[C@@H](CCCCN)C(=O)N[C@@H](Cc1ccccc1)C(=O)N[C@@H](CC(C)C)C(=O)N[C@@H](CCCCN)C(=O)N[C@@H](CCCCN)C(=O)N[C@H](C(=O)O)[C@@H](C)O)[C@@H](C)O` (H-IKTKKFLKKT-OH), in test [4], the Ka is 0.2 10^5/M.
Consider `CCCCCCCC(=O)N[C@@H](C)C(=O)N[C@H](C(=O)N[C@@H](CCN)C(=O)N[C@H]1CCNC(=O)[C@H]([C@@H](C)O)NC(=O)[C@H](CCN)NC(=O)[C@H](CCN)NC(=O)[C@H](CC(C)C)NC(=O)[C@@H](Cc2ccccc2)NC(=O)[C@H](CCN)NC1=O)[C@@H](C)O` (Octanoyl-AT[Dab][Dab][Dab][dF]L[Dab][Dab]T; lactam 4-C), for which the MIC in test [1], in test [2] and in test [3] was 2 µM (≈ 2.32 µg/mL) throughout.
On to `CCCCCCCC(=O)N[C@@H](CCN)C(=O)N[C@@H](C)C(=O)N[C@@H](CCN)C(=O)N[C@H]1CCNC(=O)[C@H]([C@@H](C)O)NC(=O)[C@H](CCN)NC(=O)[C@H](CCN)NC(=O)[C@H](CC(C)C)NC(=O)[C@@H](Cc2ccccc2)NC(=O)[C@H](CCN)NC1=O` (Octanoyl-[Dab]A[Dab][Dab][Dab][dF]L[Dab][Dab]T; lactam 4-C), for which the figures for the MIC in test [1], in test [2] and in test [3] were 8 µM (≈ 9.28 µg/mL), 4 µM (≈ 4.64 µg/mL) and 2 µM (≈ 2.32 µg/mL), respectively.
With `CCCCCCCC(=O)N[C@@H](CCN)C(=O)N[C@H](C(=O)N[C@@H](C)C(=O)N[C@H]1CCNC(=O)[C@H]([C@@H](C)O)NC(=O)[C@H](CCN)NC(=O)[C@H](CCN)NC(=O)[C@H](CC(C)C)NC(=O)[C@@H](Cc2ccccc2)NC(=O)[C@H](CCN)NC1=O)[C@@H](C)O` (Octanoyl-[Dab]TA[Dab][Dab][dF]L[Dab][Dab]T; lactam 4-C), the figures for the MIC in test [1], in test [2] and in test [3] were 1 µM (≈ 1.16 µg/mL), 1 µM (≈ 1.16 µg/mL) and 2 µM (≈ 2.32 µg/mL), respectively.
With `CC(C)C[C@@H]1NC(=O)[C@@H](Cc2ccccc2)NC(=O)[C@H](CCN)NC(=O)[C@@H](NC(=O)[C@H](CCN)NC(=O)[C@@H](NC(=O)[C@H](CCN)NC(=O)CC23CC4CC(CC(C4)C2)C3)[C@@H](C)O)CCNC(=O)[C@H]([C@@H](C)O)NC(=O)[C@H](CCN)NC(=O)[C@H](CCN)NC1=O` [1-ADAMANTANEACETIC ACID POLYMIXIN B], the values for the MIC in test [1], in test [2] and in test [3] were 1 µM (≈ 1.24 µg/mL), 0.5 µM (≈ 0.62 µg/mL) and 1 µM (≈ 1.24 µg/mL), respectively.
`CC(C)C[C@@H]1NC(=O)[C@@H](Cc2ccccc2)NC(=O)[C@H](CCN)NC(=O)[C@@H](NC(=O)[C@H](CCN)NC(=O)[C@@H](NC(=O)[C@H](CCN)NC(=O)c2ccc3ccccc3c2)[C@@H](C)O)CCNC(=O)[C@H]([C@@H](C)O)NC(=O)[C@H](CCN)NC(=O)[C@H](CCN)NC1=O` [2-ANTHRACENE CARBOXYLIC ACID POLYMIXIN B]: the MIC is 4 µM (≈ 4.87 µg/mL) in test [1], 2 µM (≈ 2.43 µg/mL) in test [2] and 2 µM (≈ 2.43 µg/mL) in test [3].
For the molecule `CC(C)C[C@@H]1NC(=O)[C@@H](Cc2ccccc2)NC(=O)[C@H](CCN)NC(=O)[C@@H](NC(=O)[C@H](CCN)NC(=O)[C@@H](NC(=O)[C@H](CCN)NC(=O)Cc2ccc(-c3ccccc3)cc2)[C@@H](C)O)CCNC(=O)[C@H]([C@@H](C)O)NC(=O)[C@H](CCN)NC(=O)[C@H](CCN)NC1=O` [4-BIPHENYL ACETIC ACID POLYMIXIN B], the values for the MIC in test [1], in test [2] and in test [3] were 0.5 µM (≈ 0.629 µg/mL), 1 µM (≈ 1.26 µg/mL) and 1 µM (≈ 1.26 µg/mL), respectively.
Consider `CC(C)C[C@@H]1NC(=O)[C@@H](Cc2ccccc2)NC(=O)[C@H](CCN)NC(=O)[C@@H](NC(=O)[C@H](CCN)NC(=O)[C@@H](NC(=O)[C@H](CCN)NC(=O)C2CCCCCCCCCCC2)[C@@H](C)O)CCNC(=O)[C@H]([C@@H](C)O)NC(=O)[C@H](CCN)NC(=O)[C@H](CCN)NC1=O` [CYCLODEDECANE CARBOXYLIC ACID POLYMIXIN B], for which the MIC in test [1], in test [2] and in test [3] was 2 µM (≈ 2.52 µg/mL) throughout.
On to `CC(C)C[C@@H]1NC(=O)[C@@H](CC(C)C)NC(=O)[C@H](CCN)NC(=O)[C@@H](NC(=O)[C@H](CCN)NC(=O)[C@@H](NC(=O)[C@H](CCN)NC(=O)C2CCCCCCCCCCC2)[C@@H](C)O)CCNC(=O)[C@H]([C@@H](C)O)NC(=O)[C@H](CCN)NC(=O)[C@H](CCN)NC1=O` [CYCLODODECANE CARBOXYLIC ACID COLISTIN], for which the MIC was determined as 4 µM (≈ 4.89 µg/mL) in test [1], 2 µM (≈ 2.45 µg/mL) in test [2] and 2 µM (≈ 2.45 µg/mL) in test [3].
In the case of `CC(C)C[C@@H]1NC(=O)[C@@H](CC(C)C)NC(=O)[C@H](CCN)NC(=O)[C@@H](NC(=O)[C@H](CCN)NC(=O)[C@@H](NC(=O)[C@H](CCN)NC(=O)C(c2ccccc2)C2CCCC2)[C@@H](C)O)CCNC(=O)[C@H]([C@@H](C)O)NC(=O)[C@H](CCN)NC(=O)[C@H](CCN)NC1=O` (some centres undefined) [CYCLOPENTYLPHENYL ACETIC ACID COLISTIN], the results for the MIC in test [1], in test [2] and in test [3] were 16 µM (≈ 19.4 µg/mL), 16 µM (≈ 19.4 µg/mL) and 2 µM (≈ 2.43 µg/mL), respectively.
Consider `CC(C)C[C@@H]1NC(=O)[C@@H](Cc2ccccc2)NC(=O)[C@H](CCN)NC(=O)[C@@H](NC(=O)[C@H](CCN)NC(=O)[C@@H](NC(=O)[C@H](CCN)NC(=O)C(c2ccccc2)C2CCCC2)[C@@H](C)O)CCNC(=O)[C@H]([C@@H](C)O)NC(=O)[C@H](CCN)NC(=O)[C@H](CCN)NC1=O` (some centres undefined) [CYCLOPENTYLPHENYL ACETIC ACID POLYMIXIN B], for which the values for the MIC in test [1], in test [2] and in test [3] were 8 µM (≈ 10 µg/mL), 8 µM (≈ 10 µg/mL) and 2 µM (≈ 2.5 µg/mL), respectively.
For the molecule `CCCCCCCC(=O)N[C@H](C(=O)N[C@@H](CCN)C(=O)N[C@H]1CCNC(=O)[C@H]([C@@H](C)O)NC(=O)[C@H](CCN)NC(=O)[C@H](CCN)NC(=O)[C@H](CC(C)C)NC(=O)[C@@H](CC(C)C)NC(=O)[C@H](CCN)NC1=O)[C@@H](C)O` [Octanoyl colistin nonapeptide], the MIC in test [1] turned out to be 1 µM (≈ 1.06 µg/mL); in test [2], 4 µM (≈ 4.22 µg/mL); in test [3], 2 µM (≈ 2.11 µg/mL).
